Results taken from PMC4142417, “Epigenetic Impacts of Ascorbate on Human Metastatic Melanoma Cells” (Frontiers in Oncology, 2014).
Read-outs that look alike come from different tables or passages of the source.

What was measured:
BLM melanoma cells = assay: Cell-cycle analysis (propidium iodide, FACS); assay type: cell-based, human; settings: 8 mM for 1 h
Experimental: BLM cells were incubated with ascorbate at 8 mM. After 0–24 h (in 2 h intervals) the cells (1 × 10^6) were harvested, washed with cold PBS, fixed with 75% ethanol, and incubated at 4°C for at least 1 h. Cells were then centrifuged and washed twice in cold PBS. Intracellular DNA was labeled with propidium iodide solution [propidium iodide […] (Sigma) and RNase […] (Thermo Scientific) in PBS] and incubated at 4°C for 30 min in the dark. Cell cycle was analyzed using flow cytometry and FACSDiva software (BD Biosciences, Heidelberg, Germany). As shown previously ([5]), pharmacological doses of ascorbate in the low millimolar-range induce cell death in human cancer cells. However, since in the latter publication we only performed end-point analyses 24 h after incubation of the cells with ascorbate, for the current project we exposed BLM cells to pharmacological 8 mM ascorbate for 1 h, and the cells were ethanol-fixed every 2 h for 24 h to closely monitor cell-cycle alterations at 2 h intervals over 24 h. The cell cycle was analyzed with FACS after staining of the cells with propidium iodide. […] At 12 h post ascorbate exposure only a small percentage of the BLM cells were shifted toward the sub-G1 fraction of cells. Therefore, the 12 h time point after ascorbate exposure was chosen for the following experiments.  Figure 2 Pharmacological ascorbate induces apoptosis in human metastatic BLM melanoma cells in a time-dependent manner. BLM cells were treated with 8 mM ascorbate for 1 h. Cells were ethanol-fixed every 2 h for 24 h, stained with propidium iodide, and cell cycle was analyzed with FACS. Depicted are the FACS plots for the untreated control cells and for 2, 4, 6, 8, 12, 16, 20, and 24 h after ascorbate exposure. […] Gray colored graphs indicate the control cells; black colored graphs (2–8 h) the initial shift into G2/M phase; red colored graphs (12–24 h) the subsequent shift into sub-G1 fraction.

[1] = system: human HDACs (HeLa nuclear extract); assay: HDAC-inhibitor screening assay with HeLa nuclear extract; assay type: biochemical; settings: 5–8000 μM, 2 h at 37°C
Experimental: Determination of a possible HDAC-inhibitor activity of ascorbate was done by using the HDAC assay kit (Active Motif, Rixensart, Belgium). Ascorbate was diluted in assay buffer to the final concentrations of 5, 10, 20, 50, 100, 200 μM, and 8 mM. Assay was performed according to manufacturer’s protocol. Briefly, ascorbate was incubated with HeLa nuclear extract as a source of human HDACs for 2 h at 37°C and the developing time was set to 10 min. Each experiment was performed in triplicates and repeated three times.
(A) Overall HDAC inhibition in cellular extracts of the human cell line HeLa by increasing concentrations of ascorbate (5–8000 μM). As reference inhibitor 100 μM suberoylanilide hydroxamic acid (SAHA) was used. Every concentration was tested three times in triplicates. (B) Specific fluorometric profiling assay using recombinant human HDACs of classes I, II, and IV. Specific inhibition values were generated for the treatment with 50 μM and 8 mM ascorbate. Inhibition values for every HDAC were yielded by two experiments, each performed in duplicates. Shown are mean ± SD. One-way ANOVA Dunnett’s multiple comparison test, n.s. indicates not significant.

[2] = system: human HDAC1, HDAC2, HDAC3, HDAC4, HDAC5, HDAC6, HDAC7, HDAC8, HDAC9, HDAC10, and HDAC11; assay: HDAC-inhibitor profiling assay (fluorometric, recombinant HDACs of classes I, II, and IV); assay type: biochemical; settings: 50 μM and 8 mM ascorbate
Experimental: The HDAC profiling assay was performed on basis of fluorometric measurement by Scottish Biomedical (Scottish Biomedical, Glasgow, UK). The percentage inhibition values of 50 μM and 8 mM ascorbate against human HDAC1, HDAC2, HDAC3, HDAC4, HDAC5, HDAC6, HDAC7, HDAC8, HDAC9, HDAC10, and HDAC11 was determined. Both concentrations of ascorbate were tested in two experiments, each in duplicates.

[3] = system: DNA methyltransferase (DNMT) activity in MeWo melanoma cells; assay: DNMT activity in nuclear extracts of treated MeWo cells; assay type: cell-based, human; settings: 200 μM for 1 h, nuclear extract 12 h after treatment
Experimental: (§1) DNMT activity was analyzed in the nuclear extracts with the DNMT activity/inhibition assay (Active Motif) according to the procedure described by the manufacturer.
(§2) Global DNMT activity was determined in nuclear extracts of MeWo and BLM cells 12 h after 1 h treatment with 200 μM or 8 mM ascorbate.

[4] = system: DNA methyltransferase (DNMT) activity in BLM melanoma cells; assay: DNMT activity in nuclear extracts of treated BLM cells; assay type: cell-based, human; settings: 200 μM for 1 h, nuclear extract 12 h after treatment
Experimental: as §1, §2

[5] = system: miRNA expression in BLM melanoma cells; assay: miRNA expression chip analysis; assay type: cell-based, human
Experimental: microRNA was isolated from BLM cells using the miRNeasy kit (Qiagen, Hilden, Germany) according to the procedure described by the manufacturer. miRNA expression analysis was performed on BLM melanoma cells (five groups: untreated; 200 μM, 8 mM ascorbate treated, 4 and 12 h after the 1 h treatment, all in triplicates) using the human miRNA Microarray Release 14.0, 8x15K (Agilent, Waldbronn, Germany) based on Sanger miRbase (release 14.0). Two hundred nanograms of RNA were used per sample. The miRNA expression analysis was kindly performed at the Genomic Core Facility of the European Molecular Biology Laboratory (EMBL, Heidelberg, Germany) according to the supplier’s instructions. Evaluation of raw data generated at the Genomic Core Facility of the EMBL was performed as described previously ([32]).
Figure 6 Ascorbate alters the expression of miRNA in melanoma cells. A miRNA expression chip analysis was performed on human metastatic BLM melanoma cells (5 groups: untreated, 200 μM ascorbate, 8 mM ascorbate, both 4 and 12 h after ascorbate exposure; all in triplicates) using the human miRNA Microarray Release 14.0, 8x15K (Agilent Technologies) based on Sanger miRbase (release 14.0). A total of 151 miRNAs were differentially expressed in response to ascorbate.

[6] = system: 9 human melanoma cell lines; set-up: method as in PMID 24330097; settings: ref [5], cited from earlier work
[7] = system: 60 cancer cell lines of the NCI60 panel; set-up: method as in PMID 24330097; settings: ref [5], read-out: overall IC50 of all 60 cancer cell lines; cited from earlier work
[8] = set-up: method as in PMID 23670640; settings: i.v. administration of 70 g/m^2; ref [16]; cited from earlier work
LOX-IMVI melanoma cells = system: LOX-IMVI melanoma cells; set-up: method as in PMID 24330097; settings: 8 mM, ref [5]; cited from earlier work
[9] = system: GLUT-1 expression (HIF-1α downstream target) in melanoma cell lines; set-up: method as in PMID 24330097; settings: treatment at the individual IC50 concentrations, ref [5]; cited from earlier work
[10] = 8 mM vs. 200 μM for 1 h, after 12 h
[11] = 12 h after 1 h exposure, 8 mM vs. 200 μM ascorbate

Q: With `O=C1O[C@H]([C@@H](O)CO)C(O)=C1O` [ascorbate, ascorbic acid] as the compound, how does the “G2/M fraction of cells” value (BLM melanoma cells; 2 to 8 h after exposure) read?
A: steadily increased

Q: What about the “sub-G1 fraction of DNA fragmented cells (indicative for apoptosis)” value (BLM melanoma cells; 12 h post-treatment) of the same compound?
A: prominent increase

Q: What about the “cell cycle shift toward sub-G1 fraction” value (BLM melanoma cells; 20 h post-treatment) of the same compound?
A: completely shifted toward the sub-G1 fraction

Q: What about the “overall HDAC inhibition” value [1] of the same compound?
A: only a marginal inhibitory activity

Q: What about the “inhibition of the 11 human HDACs” value [2] of the same compound?
A: neither the physiological 50 μM nor the pharmacologic 8 mM ascorbate showed a significant inhibition

Q: What about the “increase of DNMT activity” value [3] of the same compound?
A: 4%

Q: What about the “increase of DNMT activity” value [4] of the same compound?
A: 18%

Q: And the “number of miRNAs differentially expressed in response to ascorbate” value ([5]; 200 μM or 8 mM for 1 h, 4 and 12 h after exposure)?
A: 151

Q: And the “number of up-regulated miRNAs” value [5, 10]?
A: 32

Q: What about the “up-regulation of the 32 miRNAs” value [5, 10] of the same compound?
A: 4- to 38 fold

Q: What about the “Up-regulation of hsa-miR-99b” value [5, 11] of the same compound?
A: 2.44 2 × log^2

Q: And the “Up-regulation of hsa-miR-125b-2” value [5, 11]?
A: 2.8 2 × log^2

Q: What about the “Up-regulation of hsa-miR-134” value [5, 11] of the same compound?
A: 2.15 2 × log^2

Q: What about the “Up-regulation of hsa-miR-135a” value [5, 11] of the same compound?
A: 2.45 2 × log^2

Q: And the “Up-regulation of hsa-miR-339-3p” value [5, 11]?
A: 2.47 2 × log^2

Q: What about the “Up-regulation of hsa-miR-345” value [5, 11] of the same compound?
A: 2.82 2 × log^2

Q: What about the “Up-regulation of hsa-miR-375” value [5, 11] of the same compound?
A: 3.65 2 × log^2

Q: What about the “Up-regulation of hsa-miR-422a” value [5, 11] of the same compound?
A: 4.29 2 × log^2

Q: And the “Up-regulation of hsa-miR-490-5p” value [5, 11]?
A: 3.91 2 × log^2

Q: What about the “Up-regulation of hsa-miR-516a-3p” value [5, 11] of the same compound?
A: 2.56 2 × log^2

Q: What about the “Up-regulation of hsa-miR-564” value [5, 11] of the same compound?
A: 3.28 2 × log^2

Q: And the “Up-regulation of hsa-miR-583” value [5, 11]?
A: 3.97 2 × log^2

Q: And the “Up-regulation of hsa-miR-596” value [5, 11]?
A: 5.26 2 × log^2

Q: What about the “Up-regulation of hsa-miR-614” value [5, 11] of the same compound?
A: 2.61 2 × log^2

Q: What about the “Up-regulation of hsa-miR-617” value [5, 11] of the same compound?
A: 2.33 2 × log^2

Q: What about the “Up-regulation of hsa-miR-629” value [5, 11] of the same compound?
A: 3.38 2 × log^2

Q: And the “Up-regulation of hsa-miR-630” value [5, 11]?
A: 4.3 2 × log^2

Q: And the “Up-regulation of hsa-miR-654-5p” value [5, 11]?
A: 3.39 2 × log^2

Q: What about the “Up-regulation of hsa-miR-662” value [5, 11] of the same compound?
A: 3.59 2 × log^2

Q: What about the “Up-regulation of hsa-miR-663” value [5, 11] of the same compound?
A: 2.05 2 × log^2

Q: And the “Up-regulation of hsa-miR-708” value [5, 11]?
A: 3.48 2 × log^2

Q: What about the “Up-regulation of hsa-miR-718” value [5, 11] of the same compound?
A: 2.97 2 × log^2

Q: What about the “Up-regulation of hsa-miR-887” value [5, 11] of the same compound?
A: 5.14 2 × log^2

Q: What about the “Up-regulation of hsa-miR-1181” value [5, 11] of the same compound?
A: 2.06 2 × log^2

Q: And the “Up-regulation of hsa-miR-1225-5p” value [5, 11]?
A: 2.38 2 × log^2

Q: And the “Up-regulation of hsa-miR-1228” value [5, 11]?
A: 2.24 2 × log^2

Q: And the “Up-regulation of hsa-miR-1246” value [5, 11]?
A: 2.13 2 × log^2

Q: What about the “Up-regulation of hsa-miR-1268” value [5, 11] of the same compound?
A: 2.84 2 × log^2

Q: And the “Up-regulation of hsa-miR-1915” value [5, 11]?
A: 2.22 2 × log^2

Q: And the “Up-regulation of hsa-miR-1972” value [5, 11]?
A: 2.22 2 × log^2

Q: What about the “Up-regulation of hsa-miR-1973” value [5, 11] of the same compound?
A: 3.08 2 × log^2

Q: And the “Up-regulation of hsa-miR-2117” value [5, 11]?
A: 2.65 2 × log^2

Q: What about the “IC50 for all melanoma cell lines” value ([6]; NCI60 melanoma cell lines) of the same compound?
A: low millimolar range

Q: And the IC50 ([6]; NCI60 melanoma cell lines, read-out: IC50 for all melanoma cell lines)?
A: 3.1 mM

Q: And the IC50 ([6]; NCI60 melanoma cell lines, read-out: IC50 range across melanoma cell lines)?
A: 0.2 to 8.5 mM

Q: And the “cytotoxic effect on melanoma cells” value ([6]; physiological ascorbate (200 μM))?
A: no cytotoxic effect

Q: And the IC50 [7]?
A: 4.5 mM

Q: What about the blood peak concentration [8] of the same compound?
A: up to 49 mM

Q: What about the intracellular peroxide radicals (LOX-IMVI melanoma cells) of the same compound?
A: high amount

Q: What about the “percentage of sub-G1 (apoptotic) cells determined by FACS” value (LOX-IMVI melanoma cells) of the same compound?
A: increased percentage

Q: What about the GLUT-1 expression [9] of the same compound?
A: decreased
